Consider 45 compounds from ChEMBL document CHEMBL1141712, “Kinase array design, back to front: biaryl amides” (Bioorg Med Chem Lett, 2008).

Some results are limits rather than exact numbers.

Experiment [1] has as its target Mitogen-activated protein kinase 14 (Homo sapiens, UniProt Q16539). Description: Displacement of fluorescent ATP competitive ligand from p38alpha.
The target in experiment [2] is Cyclin-dependent kinase 2 (Homo sapiens, UniProt P24941). Description: Inhibition of CDK2.
The target of experiment [3] is Macrophage colony-stimulating factor 1 receptor (Homo sapiens, UniProt P07333). Description: Inhibition of cFMS.
Experiment [4] has as its target Mitogen-activated protein kinase 10 (Homo sapiens, UniProt P53779). Briefly: Inhibition of JNK3.
In experiment [5] the target is Serine/threonine-protein kinase PLK1 (Homo sapiens, UniProt P53350). Briefly: Inhibition of PLK1.
Experiment [6] concerns the target Vascular endothelial growth factor receptor 2 (Homo sapiens, UniProt P35968). Briefly: Inhibition of VEGFR2.
Experiment [7] has as its target Dual specificity mitogen-activated protein kinase kinase 1 (Homo sapiens, UniProt Q02750). Briefly: Inhibition of MEK1 by cRaf/mek/Erk cascade assay.
Experiment [8] has as its target T1, Serine/threonine-protein kinase Sgk1 (Homo sapiens, UniProt O00141).
T1 sequence (O00141 whole entry): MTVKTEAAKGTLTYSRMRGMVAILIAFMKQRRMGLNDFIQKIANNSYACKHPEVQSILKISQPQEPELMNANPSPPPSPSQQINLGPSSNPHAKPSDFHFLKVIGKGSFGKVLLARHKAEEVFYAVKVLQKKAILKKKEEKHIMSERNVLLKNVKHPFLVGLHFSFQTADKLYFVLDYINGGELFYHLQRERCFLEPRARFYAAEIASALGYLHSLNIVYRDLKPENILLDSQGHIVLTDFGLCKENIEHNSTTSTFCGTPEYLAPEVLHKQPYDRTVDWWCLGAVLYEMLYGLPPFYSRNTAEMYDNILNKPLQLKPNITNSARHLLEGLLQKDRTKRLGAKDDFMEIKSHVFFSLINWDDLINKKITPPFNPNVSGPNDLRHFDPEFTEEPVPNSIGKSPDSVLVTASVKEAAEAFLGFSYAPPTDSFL
Briefly: Inhibition of SGK1.

Another experiment has as its system Blood. Description: Inhibition of LPS-stimulated TNFalpha release in human whole blood. The format is functional, tissue-based.
For a further experiment, the system named is PBMC. Briefly: Inhibition of LPS-stimulated TNFalpha release in human PBMCs. Format: functional, cell-based.
Experiment [9] has as its target Tyrosine-protein kinase Lck (Homo sapiens, UniProt P06239).
In experiment [10] the target is Epidermal growth factor receptor (Homo sapiens, UniProt P00533).
Experiment [11] has as its target Receptor tyrosine-protein kinase erbB-4 (Homo sapiens, UniProt Q15303). Description: Inhibition of ErbB4.

Sequence of Vascular endothelial growth factor receptor 2 (P35968 whole entry): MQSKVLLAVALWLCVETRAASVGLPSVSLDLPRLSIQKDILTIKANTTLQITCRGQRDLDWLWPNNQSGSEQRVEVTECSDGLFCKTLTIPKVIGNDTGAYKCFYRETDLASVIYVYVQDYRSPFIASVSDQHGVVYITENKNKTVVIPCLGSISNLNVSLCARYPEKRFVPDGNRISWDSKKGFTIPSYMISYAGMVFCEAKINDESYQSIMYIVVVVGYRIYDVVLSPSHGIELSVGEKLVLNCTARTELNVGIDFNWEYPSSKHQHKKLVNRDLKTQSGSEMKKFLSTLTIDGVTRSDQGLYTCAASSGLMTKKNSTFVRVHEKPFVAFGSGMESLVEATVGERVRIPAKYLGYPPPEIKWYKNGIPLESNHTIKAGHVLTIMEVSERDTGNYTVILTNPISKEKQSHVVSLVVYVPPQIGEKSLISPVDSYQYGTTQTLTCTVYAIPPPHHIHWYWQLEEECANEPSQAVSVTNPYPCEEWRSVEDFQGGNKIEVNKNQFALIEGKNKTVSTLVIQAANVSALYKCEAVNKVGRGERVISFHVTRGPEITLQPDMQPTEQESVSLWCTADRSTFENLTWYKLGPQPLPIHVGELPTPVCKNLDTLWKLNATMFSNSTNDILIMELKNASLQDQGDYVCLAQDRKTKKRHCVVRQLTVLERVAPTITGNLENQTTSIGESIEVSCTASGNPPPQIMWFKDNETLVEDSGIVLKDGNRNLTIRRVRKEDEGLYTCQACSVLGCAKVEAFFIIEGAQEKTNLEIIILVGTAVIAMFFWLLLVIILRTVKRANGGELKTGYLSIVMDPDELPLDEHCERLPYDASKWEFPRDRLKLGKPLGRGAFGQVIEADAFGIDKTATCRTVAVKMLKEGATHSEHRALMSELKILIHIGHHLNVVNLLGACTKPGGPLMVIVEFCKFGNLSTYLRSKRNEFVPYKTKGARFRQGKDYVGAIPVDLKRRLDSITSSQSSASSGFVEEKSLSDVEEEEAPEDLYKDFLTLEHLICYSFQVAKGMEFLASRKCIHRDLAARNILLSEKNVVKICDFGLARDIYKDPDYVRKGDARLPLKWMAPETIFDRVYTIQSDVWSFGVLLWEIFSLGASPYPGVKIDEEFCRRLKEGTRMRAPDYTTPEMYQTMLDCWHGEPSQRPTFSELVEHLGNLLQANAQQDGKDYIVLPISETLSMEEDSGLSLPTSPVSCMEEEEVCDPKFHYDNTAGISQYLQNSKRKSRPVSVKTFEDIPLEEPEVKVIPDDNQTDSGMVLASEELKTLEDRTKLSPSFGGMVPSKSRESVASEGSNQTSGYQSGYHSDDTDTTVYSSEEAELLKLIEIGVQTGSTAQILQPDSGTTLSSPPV
Sequence of Mitogen-activated protein kinase 10 (P53779 whole entry): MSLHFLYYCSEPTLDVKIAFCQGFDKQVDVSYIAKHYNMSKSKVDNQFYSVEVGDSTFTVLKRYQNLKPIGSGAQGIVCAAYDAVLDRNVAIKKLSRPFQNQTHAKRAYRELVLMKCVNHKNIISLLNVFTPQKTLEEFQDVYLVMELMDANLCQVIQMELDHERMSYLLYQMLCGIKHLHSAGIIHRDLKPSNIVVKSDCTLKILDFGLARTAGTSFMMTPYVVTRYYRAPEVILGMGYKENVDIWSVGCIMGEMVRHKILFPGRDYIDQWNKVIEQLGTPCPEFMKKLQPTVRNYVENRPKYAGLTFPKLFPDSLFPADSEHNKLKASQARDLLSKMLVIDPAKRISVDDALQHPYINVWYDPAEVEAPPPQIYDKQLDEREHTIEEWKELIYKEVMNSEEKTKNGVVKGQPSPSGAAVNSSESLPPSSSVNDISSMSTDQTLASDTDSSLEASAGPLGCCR
Sequence of Serine/threonine-protein kinase PLK1 (P53350 whole entry): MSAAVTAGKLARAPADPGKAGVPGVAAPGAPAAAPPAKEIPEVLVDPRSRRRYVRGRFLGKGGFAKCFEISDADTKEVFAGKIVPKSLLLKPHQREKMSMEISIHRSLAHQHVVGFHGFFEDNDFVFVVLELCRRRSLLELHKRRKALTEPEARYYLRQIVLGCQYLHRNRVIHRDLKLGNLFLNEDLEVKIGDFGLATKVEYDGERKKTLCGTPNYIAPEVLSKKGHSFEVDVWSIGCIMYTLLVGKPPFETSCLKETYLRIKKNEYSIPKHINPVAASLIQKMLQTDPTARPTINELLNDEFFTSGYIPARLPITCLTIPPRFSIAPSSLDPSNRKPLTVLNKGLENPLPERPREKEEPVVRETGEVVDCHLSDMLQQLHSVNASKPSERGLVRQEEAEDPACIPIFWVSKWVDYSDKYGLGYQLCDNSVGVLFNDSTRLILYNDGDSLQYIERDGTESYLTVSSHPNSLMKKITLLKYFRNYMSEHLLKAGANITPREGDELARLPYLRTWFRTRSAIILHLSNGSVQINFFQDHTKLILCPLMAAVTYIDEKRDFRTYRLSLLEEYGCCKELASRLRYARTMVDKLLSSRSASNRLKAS
Sequence of Macrophage colony-stimulating factor 1 receptor (P07333 whole entry): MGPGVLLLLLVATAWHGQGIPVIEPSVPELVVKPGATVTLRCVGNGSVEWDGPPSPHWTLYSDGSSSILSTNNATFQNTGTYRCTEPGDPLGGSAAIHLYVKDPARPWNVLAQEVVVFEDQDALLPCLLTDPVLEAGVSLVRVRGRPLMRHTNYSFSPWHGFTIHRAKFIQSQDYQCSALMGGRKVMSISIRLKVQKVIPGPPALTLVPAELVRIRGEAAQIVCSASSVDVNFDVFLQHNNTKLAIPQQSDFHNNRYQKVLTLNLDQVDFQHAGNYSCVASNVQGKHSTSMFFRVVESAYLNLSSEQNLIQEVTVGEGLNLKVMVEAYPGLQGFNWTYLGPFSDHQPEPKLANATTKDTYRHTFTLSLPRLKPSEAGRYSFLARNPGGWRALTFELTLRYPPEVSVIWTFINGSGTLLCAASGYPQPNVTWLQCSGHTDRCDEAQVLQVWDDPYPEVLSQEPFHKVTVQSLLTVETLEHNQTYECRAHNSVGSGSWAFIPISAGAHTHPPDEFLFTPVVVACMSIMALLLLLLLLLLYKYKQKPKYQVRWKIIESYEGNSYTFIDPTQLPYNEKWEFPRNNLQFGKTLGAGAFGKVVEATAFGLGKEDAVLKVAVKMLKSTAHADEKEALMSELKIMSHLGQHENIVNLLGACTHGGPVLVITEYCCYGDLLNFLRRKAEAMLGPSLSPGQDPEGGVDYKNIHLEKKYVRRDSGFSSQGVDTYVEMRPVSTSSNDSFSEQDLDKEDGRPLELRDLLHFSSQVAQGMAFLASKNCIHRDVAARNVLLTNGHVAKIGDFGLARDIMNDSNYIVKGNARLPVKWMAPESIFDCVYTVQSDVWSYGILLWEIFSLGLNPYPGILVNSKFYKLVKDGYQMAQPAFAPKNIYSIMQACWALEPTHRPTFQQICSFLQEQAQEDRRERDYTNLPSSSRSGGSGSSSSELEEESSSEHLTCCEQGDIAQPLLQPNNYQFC
Sequence of Epidermal growth factor receptor (P00533 whole entry): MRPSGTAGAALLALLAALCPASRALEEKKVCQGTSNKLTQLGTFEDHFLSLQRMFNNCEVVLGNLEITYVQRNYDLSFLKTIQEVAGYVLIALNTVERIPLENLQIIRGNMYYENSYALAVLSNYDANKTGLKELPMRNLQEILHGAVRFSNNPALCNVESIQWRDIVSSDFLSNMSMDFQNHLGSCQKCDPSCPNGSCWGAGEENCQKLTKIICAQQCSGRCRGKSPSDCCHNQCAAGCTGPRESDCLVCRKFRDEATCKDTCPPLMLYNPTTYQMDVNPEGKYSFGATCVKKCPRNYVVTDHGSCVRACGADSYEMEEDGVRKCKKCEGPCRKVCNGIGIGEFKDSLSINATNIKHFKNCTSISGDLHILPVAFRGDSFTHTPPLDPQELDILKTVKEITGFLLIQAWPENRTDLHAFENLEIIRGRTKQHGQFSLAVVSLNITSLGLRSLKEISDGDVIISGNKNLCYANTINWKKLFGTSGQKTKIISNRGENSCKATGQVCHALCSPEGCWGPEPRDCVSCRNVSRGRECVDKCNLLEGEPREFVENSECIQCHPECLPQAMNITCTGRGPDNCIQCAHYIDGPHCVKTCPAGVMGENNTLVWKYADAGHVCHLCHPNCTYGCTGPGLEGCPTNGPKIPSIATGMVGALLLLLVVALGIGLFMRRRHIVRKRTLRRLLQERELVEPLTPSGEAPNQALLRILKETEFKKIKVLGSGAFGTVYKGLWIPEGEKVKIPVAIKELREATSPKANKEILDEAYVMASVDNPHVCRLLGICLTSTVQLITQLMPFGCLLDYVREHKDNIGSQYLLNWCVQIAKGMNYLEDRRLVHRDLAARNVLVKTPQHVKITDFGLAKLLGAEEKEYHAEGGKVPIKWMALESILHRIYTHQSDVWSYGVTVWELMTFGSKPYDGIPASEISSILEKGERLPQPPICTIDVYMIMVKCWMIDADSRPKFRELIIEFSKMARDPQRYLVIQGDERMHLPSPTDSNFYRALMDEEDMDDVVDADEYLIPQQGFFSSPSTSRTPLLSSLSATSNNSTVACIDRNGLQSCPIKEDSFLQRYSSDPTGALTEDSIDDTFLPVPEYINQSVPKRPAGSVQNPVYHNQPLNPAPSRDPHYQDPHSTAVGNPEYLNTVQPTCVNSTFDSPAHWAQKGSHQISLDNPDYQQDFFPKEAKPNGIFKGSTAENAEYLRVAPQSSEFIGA
Sequence of Dual specificity mitogen-activated protein kinase kinase 1 (Q02750 whole entry): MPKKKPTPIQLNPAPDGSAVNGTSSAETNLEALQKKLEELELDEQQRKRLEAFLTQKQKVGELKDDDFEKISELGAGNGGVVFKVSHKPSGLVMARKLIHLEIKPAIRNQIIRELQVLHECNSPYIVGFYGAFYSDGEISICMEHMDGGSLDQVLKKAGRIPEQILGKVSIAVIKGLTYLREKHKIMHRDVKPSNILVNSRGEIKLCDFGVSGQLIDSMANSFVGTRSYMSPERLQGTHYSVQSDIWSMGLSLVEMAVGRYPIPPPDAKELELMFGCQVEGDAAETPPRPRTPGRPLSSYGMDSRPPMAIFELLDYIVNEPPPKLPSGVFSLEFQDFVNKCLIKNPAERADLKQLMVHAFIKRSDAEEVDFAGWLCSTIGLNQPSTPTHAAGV

As a reminder, the Ki is a dissociation constant, usually derived from enzyme kinetics or from competition with a known ligand. The low end stands for a stronger hold on the target, the high end for a looser hold on the target. In the case of `CC(=O)Nc1cc(-c2ccc(-c3cc(NC(=O)c4ccnc(N5CCCC5)c4)ccc3C)cc2)[nH]n1`, in [1], the Ki came out at 0.014 µM.

What is called IC50 is the midpoint of a concentration-inhibition curve. A higher IC50 goes with weaker potency. For the compound `Cc1ccc(C(=O)Nc2cccc(N3CCOCC3)c2)cc1-c1ccc2c(C3CCNCC3)noc2c1`, the IC50 in experiment [2] is more than 20 µM; in [3] it was more than 20 µM; in experiment [4] it was more than 16 µM; in experiment [5], more than 25 µM; in experiment [6], more than 20 µM; in experiment [7], 0.04 µM. The same compound came in with an IC50 in experiment [8] of more than 33 µM.

Consider `Cc1ccc(NC(=O)c2ccnc(N3CCCC3)c2)cc1-c1ccc2c(C3CCNCC3)noc2c1`, for which the IC50 in experiment [2] was more than 20 µM; in the experiment on Blood, 5 µM; in [3] it was 7 µM; in experiment [4], more than 16 µM; in [5] it was more than 25 µM; in the experiment with PBMC, 0.06 µM. For the same compound, the IC50 in [6] is more than 20 µM; in [7] it was 0.03 µM; in [9], 6 µM; in [8], more than 33 µM. In experiment [1], this compound came in with a Ki of 0.0008 µM.

As to `Cc1nnc(-c2ccc(-c3cc(NC(=O)c4ccnc(N5CCCC5)c4)ccc3C)c(C)c2)o1`, the IC50 in experiment [2] was more than 20 µM; with Blood, 0.7 µM; in experiment [3] it was more than 20 µM; in [4] it was more than 16 µM; in [5], more than 25 µM; in the experiment with PBMC, 0.1 µM. The IC50 was more than 20 µM in experiment [6], 0.2 µM in experiment [7], 10 µM in [9] and more than 33 µM in experiment [8]. This compound displayed a Ki in experiment [1] of 0.0017 µM.

`Cc1ccc(C(=O)Nc2cccc(N3CCOCC3)c2)cc1-c1ccc2onc(C)c2c1` came in with a Ki in [1] of 0.38 µM.

For the compound `Cc1ccc(NC(=O)c2ccnc(N3CCCC3)c2)cc1-c1ccc2[nH]c(=O)ccc2c1`, the affinity in experiment [1], expressed as Ki, was 0.049 µM.

In the case of `Cc1ccc(C(=O)Nc2cccc(N3CCOCC3)c2)cc1-c1ccc2[nH]ncc2c1`, in [1], the Ki amounted to 0.11 µM. This Ki lies about 2.2-fold higher than the previous one.

Take `Cc1ccc(NC(=O)c2ccc(CN3CCN(C)CC3)cc2)cc1-c1ccc(-c2csc(N)n2)cc1`: the IC50 in [2] was more than 20 µM; in experiment [3] it was 0.09 µM; in experiment [4], more than 16 µM; in [10], more than 25 µM; in [5], more than 25 µM; in experiment [6], more than 20 µM. Further, the IC50 in experiment [9] was 2 µM; in experiment [11], more than 25 µM; in experiment [8] it was more than 33 µM. In experiment [1], this compound came in with a Ki of more than 0.85 µM.

As for `Cc1nc(-c2ccc(-c3cc(C(=O)NC4CC4)ccc3C)cc2)no1`, the Ki in [1] came out at 0.098 µM.

In experiment [1], `Cc1ccc(C(=O)Nc2cccc(N3CCOCC3)c2)cc1-c1ccc2nc(N)[nH]c(=O)c2c1` registered a Ki of 0.0047 µM.

With `Cc1ccc(C(=O)NC2CC2)cc1-c1ccc2nc(N)[nH]c(=O)c2c1`, in [1], the affinity, expressed as Ki, was 0.049 µM.

In [1], `Cc1nc(-c2ccc(-c3cc(C(=O)Nc4cccc(N5CCOCC5)c4)ccc3C)cc2)no1` displayed an inhibitory constant (Ki) of 0.017 µM.

`Cc1ccc(C(=O)NC2CC2)cc1-c1ccc2cccnc2c1` came in with a Ki in experiment [1] of 0.49 µM.

In experiment [1], `Cc1ccc(NC(=O)c2ccc(CN3CCN(C)CC3)cc2)cc1-c1ccc2cccnc2c1` showed a Ki of more than 2.5 µM.

`Cc1ccc(C(=O)NC2CC2)cc1-c1ccc2c(=O)cc(-c3cccs3)oc2c1` displayed a Ki in experiment [1] of 0.0067 µM.

With `Cc1ccc(C(=O)Nc2cccc(N3CCOCC3)c2)cc1-c1ccc2[nH]c(=O)ccc2c1`, in experiment [1], the Ki came out at 0.29 µM. Compared with the last compound, the Ki is about 43-fold higher.

For `Cc1nc(-c2ccc(-c3cc(NC(=O)c4ccc(CN5CCN(C)CC5)cc4)ccc3C)cc2)no1`, the Ki in [1] is more than 0.85 µM.

`CCCCn1c(=O)[nH]c2cc(-c3cc(NC(=O)c4ccnc(N5CCCC5)c4)ccc3C)ccc2c1=O` yielded a Ki in [1] of 0.011 µM.

As to `Cc1nnc(-c2ccc(-c3cc(NC(=O)c4ccc(CN5CCN(C)CC5)cc4)ccc3C)c(C)c2)o1`, the IC50 in experiment [2] is more than 20 µM; in [3], 0.1 µM; in [4], more than 16 µM; in experiment [10], more than 25 µM; in [5] it was more than 25 µM; in experiment [6] it was more than 20 µM. Further, the IC50 is 3 µM in experiment [9], more than 25 µM in [11] and more than 33 µM in experiment [8]. The compound also yielded a Ki in [1] of 1.4 µM.

`Cc1ccc(NC(=O)c2ccnc(N3CCCC3)c2)cc1-c1ccc2c(N)noc2c1` came in with a Ki in experiment [1] of 0.012 µM.

Regarding `Cc1ccc(NC(=O)c2ccc(CN3CCN(C)CC3)cc2)cc1-c1ccc2c(N)noc2c1`, the IC50 in experiment [2] was more than 20 µM; in experiment [3], 0.09 µM; in [4], more than 16 µM; in [10], more than 25 µM; in experiment [5], more than 25 µM; in experiment [6] it was more than 20 µM. Moreover, the IC50 in experiment [9] was 1 µM; in [11] it was more than 25 µM; in experiment [8], more than 33 µM. Moreover, the Ki in [1] was more than 0.85 µM.

In experiment [1], `Cc1ccc(C(=O)Nc2cccc(N3CCOCC3)c2)cc1-c1ccc2ccncc2c1` showed a Ki of 0.0045 µM.

Compound `CCCCn1c(=O)[nH]c2cc(-c3cc(C(=O)NC4CC4)ccc3C)ccc2c1=O` gave a Ki in [1] of 0.018 µM.

For the compound `CCCCn1c(=O)[nH]c2cc(-c3cc(C(=O)Nc4cccc(N5CCOCC5)c4)ccc3C)ccc2c1=O`, the Ki in [1] came out at 0.019 µM.

In turn, `Cc1ccc(NC(=O)c2ccc(CN3CCN(C)CC3)cc2)cc1-c1ccc2[nH]c(=O)ccc2c1` showed a Ki in experiment [1] of more than 2.5 µM.

As to `Cc1ccc(C(=O)NC2CC2)cc1-c1ccc2cc[nH]c(=O)c2c1`, the affinity in experiment [1] corresponds to a Ki of 0.42 µM.

In [1], `Cc1ccc(C(=O)Nc2cccc(N3CCOCC3)c2)cc1-c1ccc2cc[nH]c(=O)c2c1` gave a Ki of 0.018 µM.

As to `Cc1ccc(C(=O)NC2CC2)cc1-c1ccc2c(N)noc2c1`, the Ki in [1] turned out to be 0.11 µM.

Turning to `Cc1ccc(C(=O)NC2CC2)cc1-c1ccc(-c2csc(N)n2)cc1`, in experiment [1], affinity was put at a Ki of 0.13 µM.

In turn, `Cc1ccc(NC(=O)c2ccnc(N3CCCC3)c2)cc1-c1ccc2cc[nH]c(=O)c2c1` showed a Ki in [1] of 0.0024 µM.

`Cc1ccc(NC(=O)c2ccc(CN3CCN(C)CC3)cc2)cc1-c1ccc2cc[nH]c(=O)c2c1` had a Ki in [1] of more than 2.5 µM.

On to `CCCCn1c(=O)[nH]c2cc(-c3cc(NC(=O)c4ccc(CN5CCN(C)CC5)cc4)ccc3C)ccc2c1=O`, for which, in experiment [1], the Ki amounted to 2 µM.

The compound `Cc1ccc(NC(=O)c2ccnc(N3CCCC3)c2)cc1-c1ccc2nc(N)[nH]c(=O)c2c1` yielded a Ki in experiment [1] of 0.0068 µM.

Regarding `Cc1nc(-c2ccc(-c3cc(NC(=O)c4ccnc(N5CCCC5)c4)ccc3C)cc2)no1`, the Ki in [1] came to 0.0011 µM.

With `Cc1ccc(C(=O)NC2CC2)cc1-c1ccc2c(=O)n(CC3CC3)nnc2c1`, the IC50 in [2] was more than 20 µM; with Blood, 0.5 µM; in experiment [3] it was more than 20 µM; in [4], more than 16 µM; in experiment [10], more than 25 µM; in experiment [5], more than 25 µM. Further, the IC50 in the experiment with PBMC was 0.4 µM; in experiment [6], more than 20 µM; in [9], more than 16 µM; in [11] it was more than 25 µM; in experiment [8], 32 µM. For the same compound, the affinity in experiment [1] corresponds to a Ki of 0.006 µM.

In the case of `Cc1ccc(NC(=O)c2ccc(CN3CCN(C)CC3)cc2)cc1-c1ccc2ccncc2c1`, the IC50 in [2] is more than 20 µM; in experiment [3], 0.004 µM; in experiment [4], more than 16 µM; in experiment [10], 0.7 µM; in experiment [5], more than 25 µM; in [6], 0.8 µM. Further, the IC50 in experiment [9] is 0.07 µM; in experiment [11] it was 0.3 µM; in experiment [8], more than 33 µM. Further, affinity in [1] was put at a Ki of 0.83 µM.

On to `Cc1ccc(NC(=O)c2ccnc(N3CCCC3)c2)cc1-c1ccc2onc(C)c2c1`, for which the Ki in experiment [1] came to 0.16 µM.

For `Cc1nnc(-c2ccc(-c3cc(C(=O)Nc4cccc(N5CCOCC5)c4)ccc3C)c(C)c2)o1`, the IC50 in experiment [2] is more than 20 µM; in [3], 0.7 µM; in [4], more than 16 µM; in experiment [5], more than 25 µM; in [6], 6 µM; in [7], 0.4 µM. The same compound yielded an IC50 in [8] of more than 33 µM. Further, in [1], the affinity corresponds to a Ki of 0.0028 µM.

Compound `Cc1ccc(C(=O)NC2CC2)cc1-c1ccc2c(=O)[nH]c(-c3cccs3)nc2c1` displayed a Ki in experiment [1] of 0.0029 µM.

`Cc1ccc(C(=O)Nc2cccc(N3CCOCC3)c2)cc1-c1ccc(-c2csc(N)n2)cc1`: the Ki in experiment [1] came out at 0.02 µM. Against the preceding compound, the Ki is about 6.9-fold higher.

As for `Cc1ccc(C(=O)Nc2cccc(N3CCOCC3)c2)cc1-c1ccc2c(N)noc2c1`, the Ki in [1] was 0.019 µM.

As for `Cc1ccc(C(=O)NC2CC2)cc1-c1ccc2onc(C)c2c1`, the Ki in [1] was found to be 1.1 µM.

As to `Cc1ccc(NC(=O)c2ccnc(N3CCCC3)c2)cc1-c1ccc(-c2csc(N)n2)cc1`, in [1], the Ki turned out to be 0.0067 µM.

Regarding `Cc1ccc(C(=O)NC2CC2)cc1-c1ccc2ccncc2c1`, the IC50 in experiment [2] is more than 20 µM; with Blood, 0.1 µM; in [3], 0.6 µM; in experiment [4], more than 16 µM; in [10] it was more than 25 µM; in experiment [5], more than 25 µM. In addition, the IC50 with PBMC was 0.1 µM; in [6] it was 0.5 µM; in [9], 3 µM; in [11], more than 25 µM; in [8] it was more than 33 µM. The compound also returned a Ki in experiment [1] of 0.011 µM.

Consider `Cc1ccc(C(=O)NC2CC2)cc1-c1ccc2[nH]ncc2c1` [GW820759X], for which the affinity in experiment [1] corresponds to a Ki of 0.087 µM.
